# Data: patent US20050020544A1, “Bicyclic CB2 cannabinoid receptor ligands” (priority 2002, published 2005)
# Read-outs that look alike come from different tables or passages of the source.
# Columns and labels:
# human CB1 receptor = target: T1, human CB1 receptor (Homo sapiens, UniProt P21554); test: biochemical; type: binding
# T1 construct: purchased Perkin Elmer/NEN; host or cells: HEK-293 cells, stably transfected (membranes)
# Procedure, shortened: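 Displacement of [3H]CP55940 from membranes of HEK-293 cells stably expressing human CB1, in 50 mM Tris-HCl, 2.5 mM EDTA, 5 mM MgCl2, 1 mg/ml BSA, pH 7.4, 0.1% DMSO; 1.5 h at 30° C, then filtration.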
# [1] = test system: PGE2 secretion from activated RAW 264.7 macrophages; test: Inhibition of PGE2 in LPS activated macrophages (ELISA); type: cell-based, mouse; conditions: 4 hours after activation, doses 1 μM to 20 μM
# Description: The technique used to quantify the amount of a given protein in a liquid sample, either tissue culture supernatant or body fluid, is based on Enzyme Linked ImmunoSorbent Assay (ELISA) methodology. Either commercially available or established in house, the assay is based on the capture of the protein of interest by specific antibodies bound to the bottom of an ELISA plate well. Unbound material is washed away, the captured protein is then exposed to a secondary antibody generally labeled with horseradish peroxidase (HRP) or alkaline phosphatase (ALP). Again the unbound material is washed away, the samples are then incubated with the appropriate substrate yielding a calorimetric reaction. The reaction is stopped and reading is performed in a spectrophotometer at the appropriate wavelength. Samples are tested at least in duplicate and the appropriate standard curve, consisting of serial dilutions of the recombinant target protein, is incorporated on each plate. Concentration of the protein in the sample is calculated from the standard curve.
# RAW 264.7 macrophages, a mouse cell line (ATCC # TIB-71), were grown in Dulbecco's modified Eagle's medium (DMEM) with 4 mM L-glutamine adjusted to contain 1.5 g/L sodium bicarbonate, 4.5 g/L glucose, and 10% heat inactivated fetal bovine serum. Cells were grown in tissue culture flasks and seeded at appropriate density into 24 wells tissue culture plates. 0.5×10^6 Raw cells in one milliliter were stimulated with 2 μg/ml Lipopolysaccharide E. coli 055:B5 (DIFCO Laboratories). The mouse macrophages were pre-treated for one hour with controls or 10 μM of bicyclic CB2 ligands and later on activated with LPS. Dexamethasone was used as a positive control at 50 nM. Supernatant was collected 4 hours (for PGE2) and 24 hours (for IL-1β and TNF-α) after activation, and the levels of the inflammatory agent under study were determined by ELISA, as previously described. Inhibition was calculated versus vehicle treated cells.
# The activation of the macrophages is performed as previously described. The levels of PGE2 are measured in an ELISA assay as previously described. Inhibition is calculated versus vehicle treated cells. […] Results are depicted in FIG. 2B.
# Male Sprague Dawley rats = test: Inflammatory pain: carrageenan paw edema in rats, thermal and mechanical stimuli; type: in vivo, rat; conditions: for ΔForce (tactile stimulus) / ΔLT (thermal stimulus): three hours
# Procedure, shortened: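 Male Sprague Dawley rats (~200 g) with carrageenan-inflamed paw, tested before and 3 h after injection. Thermal withdrawal latency measured by Hargreaves plantar test at intensity 50, and mechanical threshold by dynamic plantar aesthesiometer. Values are inflamed minus non-inflamed paw differences at 0 and 3 h (ΔLT, ΔForce).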
# human CB2 receptor = human CB2 receptor (Homo sapiens, UniProt P34972); test: biochemical; type: binding; design: purchased Perkin Elmer/NEN; host or cells: CHO cells, stably transfected (membranes); conditions: for CB2/CB1 affinity ratio: IC50 CB1/IC50 CB2; for IC50: displacement of [3H]WIN 55212-2, hCB2 CHO membranes
# Procedure, shortened: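 Displacement of 0.8 nM [^3H]WIN 55212-2 from hCB2-transfected CHO membranes (25 μg protein) was measured in HEPES buffer pH 7.4 with MgCl2, EDTA and BSA, 40 min at 30 °C. Non-specific binding was defined with 10 μM CP 55940, then samples were filtered and β-counted. IC50 was extrapolated from log concentration vs % binding.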
# [2] = displacement of [3H]CP55940, hCB1 HEK-293 membranes, read-out: CB1 IC50
# Chain of human CB2 receptor (P34972 whole entry): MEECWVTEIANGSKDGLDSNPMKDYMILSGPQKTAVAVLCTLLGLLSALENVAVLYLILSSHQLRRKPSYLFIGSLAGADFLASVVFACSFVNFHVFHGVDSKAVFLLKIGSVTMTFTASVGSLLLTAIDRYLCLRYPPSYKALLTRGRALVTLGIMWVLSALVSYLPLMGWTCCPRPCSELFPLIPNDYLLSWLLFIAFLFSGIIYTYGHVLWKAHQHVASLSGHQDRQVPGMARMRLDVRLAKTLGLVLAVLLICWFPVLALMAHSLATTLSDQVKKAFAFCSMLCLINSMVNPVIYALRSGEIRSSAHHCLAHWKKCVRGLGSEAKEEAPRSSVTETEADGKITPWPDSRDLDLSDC
# T1 sequence (P21554 whole entry): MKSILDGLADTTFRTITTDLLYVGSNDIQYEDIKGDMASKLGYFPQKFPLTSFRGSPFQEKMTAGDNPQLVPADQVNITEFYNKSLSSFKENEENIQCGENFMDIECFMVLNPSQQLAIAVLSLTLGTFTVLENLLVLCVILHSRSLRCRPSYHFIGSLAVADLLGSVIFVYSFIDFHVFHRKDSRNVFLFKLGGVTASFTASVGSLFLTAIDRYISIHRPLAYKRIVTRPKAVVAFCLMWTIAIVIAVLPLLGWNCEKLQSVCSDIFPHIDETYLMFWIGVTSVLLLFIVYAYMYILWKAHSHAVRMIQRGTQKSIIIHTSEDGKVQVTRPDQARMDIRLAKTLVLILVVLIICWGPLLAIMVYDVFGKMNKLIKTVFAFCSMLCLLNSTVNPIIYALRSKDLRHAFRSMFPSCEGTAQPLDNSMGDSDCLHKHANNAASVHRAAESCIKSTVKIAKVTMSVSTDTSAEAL
Compound,IC50 (human CB1 receptor; [2]),"IC50 ([1]; Mus musculus, RAW264.7)","reversal of analgesic activity against thermal and mechanical stimuli by antagonists (Male Sprague Dawley rats; 5 mg/kg i.p. SR141716A or SR144528, 15 minutes before carrageenan and compound)",ΔForce (tactile stimulus) (Male Sprague Dawley rats; 10 mg/kg i.p.),ΔLT (thermal stimulus) (Male Sprague Dawley rats; 10 mg/kg i.p.),CB2/CB1 affinity ratio (human CB2 receptor),IC50 (human CB2 receptor),ΔForce (tactile stimulus) (Male Sprague Dawley rats; 2 mg/kg i.p.),ΔForce (tactile stimulus) (Male Sprague Dawley rats; 8 mg/kg i.p.),ΔLT (thermal stimulus) (Male Sprague Dawley rats; 8 mg/kg i.p.),"IC50 to CB2, fold lower than its (+) enantiomer (human CB2 receptor; compound A versus (+) enantiomer)","IC50 (human CB1 receptor; CB1 IC50, displacement of [3H]CP55940, hCB1 HEK-293 membranes)",IC50 [1]
"CCCCCCC(C)(C)c1cc(O)c([C@H]2CC(=O)[C@H]3C[C@@H]2C3(C)C)c(OC(=O)CCC(=O)O)c1 [Compound R, (−)-4-{4-[1,1-Dimethyl-heptyl]-2-succinate-6-hydroxy-phenyl}-6,6-dimethyl-bicyclo[3.1.1]heptan-2-one]",41 nM,9000 nM,not reversed by any of the antagonists,4 g,0 s,34,1.2 nM,,,,,,
"CCCCC(C)(C)c1cc(O)c(C2CC(=O)C3CC2C3(C)C)c(O)c1 (single isomer, unassigned; (-)) [Compound L, (−)-4-[4(1,1-Dimethyl-pentyl)-2,6-dihydroxy-phenyl]-6,6-dimethyl-bicyclo[3.1.1]heptan-2-one]",446 nM,7000 nM,,,,117,3.8 nM,11 g,,,,,
"CCCCCCC(C)(C)c1cc(O)c(C2CC(=O)C3CC2C3(C)C)c(O)c1 (single isomer, unassigned; (-)) [Compound A, (−)-4-[4-(1,1-Dimethyl-heptyl)2,6-dihydroxy-phenyl]-6,6-dimethyl-bicyclo[3.1.1)heptan-2-one]",27.6 nM,9000 nM,,,,,1 nM,,2 g,1.5 s,10 fold,,
"CCCCCCC(C)(C)c1cc(OC)c(C2C=C(CO)C3CC2C3(C)C)c(OC)c1 (single isomer, unassigned; (+)) [HU-308, (+) {4-[4-(1,1-dimethylheptyl)-2,6-dimethoxy-phenyl]-6,6-dimethyl-bicyclo[3.1.1]hept-2-en-2-yl}-methanol, reference compound]",,,,,,,,,,,,3600 nM,
"CCCCC(C)(C)c1cc(O)c(C2CC(=O)C3CC2C3(C)C)c(OC(=O)CCC(=O)O)c1 (single isomer, unassigned; (-)) [Compound Y, (−)-4-{4-[1,1-Dimethyl-pentyl]-2-succinate-6-hydroxy-phenyl}-6,6-dimethyl-bicyclo[3.1.1]heptan-2-one]",315 nM,,,,,42,7.4 nM,,,,,,7000 nM
